These results are taken from the NIST ThermoML archive (doi:10.1016/j.jct.2012.06.009).

A short description of this series: activity coefficient (dimensionless); of the first substance listed, at infinite dilution; xn = mol fraction of the nth substance listed. As to conditions: 101 kPa, Liquid, Chromatography, x1 = 0.

Each structure is given as a SMILES string. Numbers after ± are expanded uncertainties.

Turning to `C1CCCCC1` [cyclohexane] + CCCCCCCCCCCCCCCC(=O)O, the activity coefficient runs as follows: (340.19 K) 1.03 ± 0.085; (348.01 K) 1.02 ± 0.084; (358.22 K) 1.01 ± 0.083.
In the case of `CCO` [ethanol] + CCCCCCCCCC(=O)O, the activity coefficient amounted to 2.12 ± 0.18 (314.1 K); 2.07 ± 0.18 (314.24 K); 1.73 ± 0.15 (333.26 K); 1.78 ± 0.15 (333.38 K); 1.48 ± 0.12 (353.3 K).
Take `CCO` [ethanol] + CCCCCCCCCCCC(=O)O: the activity coefficient runs as follows: (314.1 K) 1.92 ± 0.17; (314.24 K) 2.02 ± 0.17; (333.38 K) 1.79 ± 0.15; (353.25 K) 1.56 ± 0.13; (353.3 K) 1.57 ± 0.13.
For `CCO` [ethanol] + CCCCCCCCCCCCCC(=O)O, the activity coefficient was 1.82 ± 0.16 (314.1 K); 1.79 ± 0.15 (314.24 K); 1.67 ± 0.14 (333.26 K); 1.67 ± 0.14 (333.38 K); 1.53 ± 0.13 (353.25 K); 1.52 ± 0.13 (353.3 K).
As to `CCO` [ethanol] + CCCCCCCCCCCCCCCC(=O)O, the activity coefficient reads like this: (340.19 K) 1.93 ± 0.17; (348.01 K) 1.8 ± 0.15; (358.23 K) 1.62 ± 0.14.
For `CCOC(C)=O` [ethyl acetate] + CCCCCCCCCC(=O)O, the activity coefficient was determined as 1.33 ± 0.11 (314.1 K), 1.25 ± 0.1 (333.26 K), 1.3 ± 0.11 (333.38 K) and 1.21 ± 0.1 (353.25 K).
For the compound `CCOC(C)=O` [ethyl acetate] + CCCCCCCCCCCC(=O)O, the activity coefficient was determined as 1.37 ± 0.12 (314.1 K); 1.36 ± 0.11 (314.24 K); 1.28 ± 0.11 (333.38 K); 1.2 ± 0.1 (353.25 K); 1.21 ± 0.1 (353.3 K).
In the case of `CCOC(C)=O` [ethyl acetate] + CCCCCCCCCCCCCC(=O)O, the activity coefficient was determined as 1.24 ± 0.1 (314.1 K); 1.21 ± 0.1 (314.24 K); 1.19 ± 0.099 (333.26 K); 1.19 ± 0.099 (333.38 K); 1.13 ± 0.094 (353.25 K); 1.12 ± 0.093 (353.3 K).
As to `CCOC(C)=O` [ethyl acetate] + CCCCCCCCCCCCCCCC(=O)O, the activity coefficient by setting is: (340.19 K) 1.28 ± 0.11; (347.93 K) 1.2 ± 0.1; (358.22 K) 1.16 ± 0.096.
On to `CCc1ccccc1` [ethylbenzene] + CCCCCCCCCC(=O)O, for which the activity coefficient reads like this: (333.26 K) 1.28 ± 0.11; (333.35 K) 1.3 ± 0.11; (353.3 K) 1.22 ± 0.1.
Turning to `CCc1ccccc1` [ethylbenzene] + CCCCCCCCCCCC(=O)O, the activity coefficient stood at 1.22 ± 0.1 (314.24 K); 1.2 ± 0.1 (333.26 K); 1.19 ± 0.099 (333.38 K); 1.18 ± 0.098 (353.25 K); 1.18 ± 0.097 (353.3 K).
For the compound `CCc1ccccc1` [ethylbenzene] + CCCCCCCCCCCCCC(=O)O, the activity coefficient runs as follows: (338.27 K) 1.06 ± 0.087; (348.3 K) 1.06 ± 0.087; (358.33 K) 1.04 ± 0.085.
Consider `CCc1ccccc1` [ethylbenzene] + CCCCCCCCCCCCCCCC(=O)O, for which the activity coefficient was 1.04 ± 0.085 (340.19 K), 1.05 ± 0.086 (348.01 K) and 1.06 ± 0.087 (358.22 K).
Take `CCCCCCC` [heptane] + CCCCCCCCCC(=O)O: the activity coefficient is, setting by setting: (314.1 K) 1.87 ± 0.16; (314.24 K) 1.9 ± 0.16; (333.26 K) 1.83 ± 0.16; (333.38 K) 1.82 ± 0.16; (353.3 K) 1.75 ± 0.15.
As to `CCCCCCC` [heptane] + CCCCCCCCCCCC(=O)O, the activity coefficient by setting is: (314.1 K) 1.65 ± 0.14; (314.24 K) 1.67 ± 0.14; (333.26 K) 1.67 ± 0.14; (333.38 K) 1.66 ± 0.14; (353.25 K) 1.59 ± 0.14; (353.3 K) 1.62 ± 0.14.
Turning to `CCCCCCC` [heptane] + CCCCCCCCCCCCCC(=O)O, the activity coefficient runs as follows: (314.1 K) 1.45 ± 0.12; (314.24 K) 1.47 ± 0.12; (333.38 K) 1.43 ± 0.12; (353.25 K) 1.4 ± 0.12; (353.3 K) 1.4 ± 0.12.
On to `CCCCCCC` [heptane] + CCCCCCCCCCCCCCCC(=O)O, for which the activity coefficient (340.19 K) was 1.4 ± 0.12, the activity coefficient (348.01 K) was found to be 1.38 ± 0.12 and the activity coefficient (358.22 K) turned out to be 1.37 ± 0.12.
In the case of `C=CCCCC` [hex-1-ene] + CCCCCCCCCC(=O)O, the activity coefficient was 1.56 ± 0.13 (314.24 K), 1.5 ± 0.13 (333.26 K), 1.49 ± 0.13 (333.38 K) and 1.43 ± 0.12 (353.3 K).
`C=CCCCC` [hex-1-ene] + CCCCCCCCCCCC(=O)O: the activity coefficient is 1.39 ± 0.12 (329.2 K), 1.39 ± 0.12 (343.39 K) and 1.34 ± 0.11 (358.06 K).
In the case of `C=CCCCC` [hex-1-ene] + CCCCCCCCCCCCCC(=O)O, the activity coefficient (314.24 K) was found to be 1.24 ± 0.1, the activity coefficient (333.26 K) worked out at 1.22 ± 0.1, the activity coefficient (333.38 K) is 1.21 ± 0.1 and the activity coefficient (353.3 K) was found to be 1.18 ± 0.098.
Regarding `C=CCCCC` [hex-1-ene] + CCCCCCCCCCCCCCCC(=O)O, the activity coefficient by setting is: (340.17 K) 1.17 ± 0.097; (348.01 K) 1.18 ± 0.098; (358.22 K) 1.2 ± 0.1.
With `CCCCCC` [hexane] + CCCCCCCCCC(=O)O, the activity coefficient is, setting by setting: (314.1 K) 1.75 ± 0.15; (314.24 K) 1.77 ± 0.15; (333.26 K) 1.73 ± 0.15; (333.38 K) 1.7 ± 0.14; (353.3 K) 1.65 ± 0.14.
For the compound `CCCCCC` [hexane] + CCCCCCCCCCCC(=O)O, the activity coefficient runs as follows: (314.24 K) 1.57 ± 0.13; (333.26 K) 1.53 ± 0.13; (333.38 K) 1.54 ± 0.13; (353.25 K) 1.5 ± 0.13.
On to `CCCCCC` [hexane] + CCCCCCCCCCCCCC(=O)O, for which the activity coefficient amounted to 1.34 ± 0.11 (338.27 K), 1.33 ± 0.11 (348.3 K) and 1.33 ± 0.11 (358.33 K).
On to `CCCCCC` [hexane] + CCCCCCCCCCCCCCCC(=O)O, for which the activity coefficient is, setting by setting: (340.19 K) 1.29 ± 0.11; (348.01 K) 1.3 ± 0.11; (358.22 K) 1.3 ± 0.11.
For `CO` [methanol] + CCCCCCCCCC(=O)O, the activity coefficient reads like this: (314.24 K) 2.14 ± 0.18; (333.38 K) 1.84 ± 0.16; (353.08 K) 1.46 ± 0.12; (353.3 K) 1.57 ± 0.13.
For `CO` [methanol] + CCCCCCCCCCCC(=O)O, the activity coefficient turned out to be 1.81 ± 0.15 (314.1 K); 1.9 ± 0.16 (328.82 K); 1.67 ± 0.14 (333.26 K); 1.66 ± 0.14 (343.65 K); 1.58 ± 0.13 (353.3 K).
Turning to `CO` [methanol] + CCCCCCCCCCCCCC(=O)O, the activity coefficient is, setting by setting: (314.24 K) 1.92 ± 0.17; (333.26 K) 1.73 ± 0.15; (333.38 K) 1.71 ± 0.15; (338.29 K) 2 ± 0.17; (353.3 K) 1.56 ± 0.13; (358.31 K) 1.6 ± 0.14.
For `CO` [methanol] + CCCCCCCCCCCCCCCC(=O)O, the activity coefficient runs as follows: (340.17 K) 2.09 ± 0.18; (347.93 K) 1.94 ± 0.17; (358.23 K) 1.8 ± 0.15.
For the compound `CCCO` [propan-1-ol] + CCCCCCCCCC(=O)O, the activity coefficient runs as follows: (314.1 K) 1.89 ± 0.16; (314.24 K) 1.92 ± 0.17; (333.26 K) 1.57 ± 0.13; (333.38 K) 1.6 ± 0.14; (353.25 K) 1.41 ± 0.12; (353.3 K) 1.35 ± 0.12.
On to `CCCO` [propan-1-ol] + CCCCCCCCCCCC(=O)O, for which the activity coefficient by setting is: (314.1 K) 1.76 ± 0.15; (314.24 K) 1.78 ± 0.15; (333.26 K) 1.57 ± 0.13; (333.38 K) 1.6 ± 0.14; (353.25 K) 1.43 ± 0.12; (353.3 K) 1.43 ± 0.12.
On to `CCCO` [propan-1-ol] + CCCCCCCCCCCCCC(=O)O, for which the activity coefficient reads like this: (314.1 K) 1.61 ± 0.14; (314.24 K) 1.65 ± 0.14; (333.26 K) 1.52 ± 0.13; (333.38 K) 1.51 ± 0.13; (353.25 K) 1.37 ± 0.12; (353.3 K) 1.37 ± 0.12.
For the compound `CCCO` [propan-1-ol] + CCCCCCCCCCCCCCCC(=O)O, the activity coefficient is 1.74 ± 0.15 (340.19 K), 1.63 ± 0.14 (348.01 K) and 1.5 ± 0.13 (358.32 K).
For the compound `CC(C)O` [propan-2-ol] + CCCCCCCCCC(=O)O, the activity coefficient by setting is: (314.1 K) 1.56 ± 0.13; (314.24 K) 1.58 ± 0.13; (333.26 K) 1.35 ± 0.11; (333.38 K) 1.36 ± 0.11; (353.25 K) 1.2 ± 0.1; (353.3 K) 1.15 ± 0.097.
Regarding `CC(C)O` [propan-2-ol] + CCCCCCCCCCCC(=O)O, the activity coefficient (314.1 K) is 1.5 ± 0.13; the activity coefficient (314.24 K) stood at 1.53 ± 0.13; the activity coefficient (333.26 K) stood at 1.33 ± 0.11; the activity coefficient (333.38 K) stood at 1.37 ± 0.12; the activity coefficient (353.25 K) worked out at 1.22 ± 0.1; the activity coefficient (353.3 K) worked out at 1.24 ± 0.1.
